{
  "source": "paper PMC11738990",
  "about": "“A small-molecule TNIK inhibitor targets fibrosis in preclinical and clinical models” (Nature Biotechnology, 2024)",
  "key": {"C57BL/6 mice": {"test_system": "C57BL/6 mice", "test": "Bleomycin-induced lung fibrosis model", "assay_type": "in vivo, mouse", "conditions": "individual animals, Fig 3B-C", "procedure": "Mice received bleomycin on day 1 at a dose of 0.66 mg per kg (equivalent to 1 U per kg), in a volume of 50 μl by intratracheal administration, or received saline (sham group). On day 7, dosing with the corresponding compounds was started. The vehicle group (group 1) was treated with 0.5% methylcellulose BID. […] On days 5 and 21, lung function measurement was performed. On day 28, all animals were killed, and blood and tissue samples were collected along with BALF.\nLung function was measured according to the HDB standard protocol. Expiratory time, relaxation time, peak expiratory flow and peak inspiratory flow were collected and used to calculate Penh data.\nMice were first anesthetized with Zoletil–xylazine (50 mpk and 10 mpk, i.p.). Next, a 1.5–2-cm longitudinal incision was made on the ventral side of the neck to expose the trachea by blunt dissection, and curved forceps were placed underneath the trachea. A 10–12-cm piece of suture was then threaded underneath the trachea using forceps. The ends of the suture were then pulled cranially to ‘stretch’ the trachea toward the surgeon. A 20-G needle was then used to poke a hole in the trachea as close to the larynx as possible. A 22-G blunt stainless steel needle connected to PE tubing was placed in the hole and inserted approximately 5–8 mm into the trachea. The cannula was secured in the trachea by tying the suture around it with an overhand knot. A 1-ml syringe containing 0.4 ml saline was gently pushed forward and backward three times to recover BALF fluid. BALF was transferred into empty tubes and stored on ice. This process was repeated twice with 0.3 ml saline for a total volume of 1 ml.\nTotal cell numbers were counted with a standard hemocytometer by mixing 20 μl BALF with 20 μl trypan blue. Cytospins were prepared by cytocentrifugation using Cytospins at 106g for 5 min, and then smears of BALF cells were stained with Diff-Quick stain. Cell differentiation was performed by counting at least 400 cells using standard hemocytologic criteria to classify them as alveolar macrophages or monocytes, neutrophils, eosinophils or lymphocytes. The rest of the BALF fluid was centrifuged, and supernatants were collected and stored at −80 °C for cytokine, chemokine and total protein analysis.\nFrom the collected BALF, concentrations of cytokines were measured from mice in groups 2–7 killed on day 28. Mouse BALF cytokines and chemokines were measured using the ELISA Analysis Kit (Sinobest Bio). Mouse BALF soluble collagen was measured using the Soluble Collagen kit (Biocolor). Mouse lung hydroxyproline content was measured using the Hydroxyproline Assay Kit (Njjcbio).\nLeft lung lobes were removed from each mouse and fixed in 10% NBF solution, embedded in paraffin and processed to obtain 4-μm sections for staining with H&E. H&E-stained slides were scanned using an Aperio ScanScope Model CS2 (Leica) at ×200 magnification. Images were then opened in the HALO Plus 5 workstation (version 2.3, Indica Labs) program. Using the pen annotation tool, the whole-lung section was selected as an annotation layer. The area of vessels was defined as background using the exclusion drawing tool. The total inflammation area was quantified by selecting the dark blue inflammation cells using the pen annotation tool manually. The percentage of H&E staining (inflammation area/total area of the lung) in the selected annotation was then calculated using the program.\nMasson’s trichrome staining was conducted using a ready-to-use kit (Trichrome Stain (Masson) Kit, HT15, Sigma-Aldrich) as described by the manufacturer.\nLung sections were cut at a thickness of 4 μm, dried in an oven for 1 h and stained with M&T using our standard protocol."}, "CD-1 mice": {"test_system": "CD-1 mice", "conditions": "single IV; ref Insilico Medicine, 2021; cited from earlier work"}, "Sprague Dawley rats": {"test_system": "Sprague Dawley rats", "test": "Bleomycin-induced skin scarring model", "assay_type": "in vivo, rat", "conditions": "0.05% topical", "method": "Animals were anesthetized using isoflurane. Using a 1-ml syringe containing a 27-gauge needle, 100 µl bleomycin (1 mg ml^−1 in PBS) solution was injected subcutaneously into two sites on the shaved dorsal regions, QD for 4 weeks. Rats in the naive control group were injected daily with an equivalent volume of sterile PBS. […] After 4 weeks of treatment, animals were killed with CO2, and skin was collected.\nHydroxyproline and collagen concentrations were normalized to total protein content using the Bradford method."}, "healthy subjects": {"test_system": "healthy subjects", "conditions": "in vivo"}, "[1]": {"test_system": "primary lung fibroblasts from donors with IPF", "test": "FMT by α-SMA, high-content analysis", "assay_type": "cell-based, human", "conditions": "three donors with IPF; read-out: IC50, TGF-β-mediated α-SMA expression", "method": "For the measurement of FMT by α-SMA, on the first day, human lung-derived primary lung fibroblast cells were seeded. After 2 d, the medium of the cells was refreshed. […] On the eighth day (72 h after triggering), cells were fixed with 4% formaldehyde, stained for α-SMA and with DAPI and then imaged and quantified via high-content analysis (HCA) (IN Cell Analyzer 2200, GE Healthcare).\nSegmentation and quantification of α-SMA and FN1 immunoreactivity was carried out with an HCA algorithm, with density × area (D × A) output. Data normalization of raw α-SMA or FN1 (D × A) to percent inhibition values was performed on a plate-to-plate basis.\n[…]\nμp is the average α-SMA or FN1 value of the positive control (TGF-β1 + 1 μM SB525334). μn is the average α-SMA or FN1 value of the vehicle control (TGF-β1 + 0.1% DMSO). Xi is the compound α-SMA or FN1 value. IC50 values for all compounds (if calculable, based on the point of inflection) were calculated with GraphPad Prism using non-linear fit of log (inhibitor) versus response (four parameter).\nDAPI fluorescence was applied for HCA-based quantification of the number of imaged cells on a plate-to-plate basis.\nPercent remaining cells = (Xi/μn) × 100%\nμn is the average number of nuclei of the vehicle control (TGF-β1 + 0.1% DMSO). Xi is the compound number of nuclei."}, "mice": {"test_system": "mice", "conditions": "male mice, 180 mg/kg daily; ref Insilico Medicine, 2021; cited from earlier work"}, "[2]": {"test_system": "primary bronchial epithelial cells from donors with IPF", "test": "EMT by FN1, high-content analysis", "assay_type": "cell-based, human", "conditions": "three donors with IPF", "procedure": "For the measurement of EMT by FN1, on the first day, human primary bronchial epithelial cells were seeded. After 2 d, the medium of the cells was refreshed. […] After 1 h, all cells were treated with 5 ng ml^−1 TGF-β1.\nPercent inhibition = (100 − (μp − Xi)/(μp − Xn)) × 100"}, "[3]": {"conditions": "G4 INS018_055 30mpk BID, 30 mg/kg"}},
  "note": "Several values for one entry are separate records, joined by “and”; a condition that tells them apart may be missing. Equal entries are not always repeated.",
  "data": [
    {"smiles": "CC(C)n1cnc(-c2ccc(F)cc2)c1-c1nc(C(=O)Nc2ccc(N3CCN(C)CC3)cc2)c[nH]1", "note": "[INS018_055, 2-[4-(4-fluorophenyl)-1-(prop-2-yl)imidazol-5-yl]-N-[4-(4-methylhexahydropyrazin-1-yl)phenyl]-1H-imidazole-4-carboxamide]", "values": [
      {"measurement": "α-SMA", "setting": "C57BL/6 mice; G3 INS018_055 10mpk BID, 10 mg/kg", "value": "0.2 and 0.91 and 0.22 and 0.38 and 0.09 and 0.78 and 0.06 and 0.41 and 2.61"},
      {"measurement": "Lung function (Penh)", "setting": "C57BL/6 mice; [3]", "value": "0.81 and 0.4773 and 0.7792 and 0.5085 and 0.4976 and 0.9972 and 0.6276 and 0.4738 and 0.7711 and 0.8367 and 0.5642 and 0.8492 and 0.6495"},
      {"measurement": "Masson Trichrome's staining", "setting": "C57BL/6 mice; [3]", "value": "54.82 and 0.37 and 1.9 and 3.57 and 0.51 and 0.16 and 12.49 and 1.77 and 9.46 and 7.1"},
      {"measurement": "Modified Ashcroft Score", "setting": "C57BL/6 mice; [3]", "value": "1.5 and 3 and 6"},
      {"measurement": "collagen I", "setting": "C57BL/6 mice; [3]", "value": "0.43 and 0.13 and 2.32 and 1.69 and 1.28 and 0.07 and 1.12 and 0.03 and 0.15 and 0.02"},
      {"measurement": "α-SMA", "setting": "C57BL/6 mice; [3]", "value": "0.1 and 0.05 and 0.38 and 0.09 and 0.73 and 0.22 and 0.72 and 0.11 and 0.15 and 0.18"},
      {"measurement": "LOAEL", "setting": "CD-1 mice", "value": 10, "unit": "mg/kg"},
      {"measurement": "Hydroxyproline in skin", "setting": "Sprague Dawley rats", "value": "1036.36 and 1122.01 and 1193.18 and 833.714 and 660.98"},
      {"measurement": "Total collagen in skin", "setting": "Sprague Dawley rats", "value": "114.74 and 120.73 and 157.27 and 80.17 and 90.17"},
      {"measurement": "Abdominal pain", "setting": "healthy subjects", "value": "1 (5.6) [1]"},
      {"measurement": "Alanine aminotransferase increased", "setting": "healthy subjects", "value": "1 (5.6) [1]"},
      {"measurement": "Alopecia", "setting": "healthy subjects", "value": "0 [0]"},
      {"measurement": "Any SAE", "setting": "healthy subjects", "value": "0 [0]"},
      {"measurement": "Any Severe TEAE", "setting": "healthy subjects", "value": "0 [0]"},
      {"measurement": "Any Treatment-Related Moderate TEAE", "setting": "healthy subjects", "value": "0 [0]"},
      {"measurement": "Any Treatment-Related SAE", "setting": "healthy subjects", "value": "0 [0]"},
      {"measurement": "Any Treatment-Related Severe TEAE", "setting": "healthy subjects", "value": "0 [0]"},
      {"measurement": "Aphthous ulcer", "setting": "healthy subjects", "value": "1 (5.6) [1]"},
      {"measurement": "Aspartate aminotransferase increased", "setting": "healthy subjects", "value": "1 (5.6) [1]"},
      {"measurement": "Back pain", "setting": "healthy subjects", "value": "1 (5.6) [1]"},
      {"measurement": "Blood creatine phosphokinase increased", "setting": "healthy subjects", "value": "1 (5.6) [1]"},
      {"measurement": "Catheter site bruise", "setting": "healthy subjects", "value": "1 (5.6) [1]"},
      {"measurement": "Catheter site inflammation", "setting": "healthy subjects", "value": "1 (5.6) [1]"},
      {"measurement": "Catheter site pain", "setting": "healthy subjects", "value": "0 [0]"},
      {"measurement": "Catheter site swelling", "setting": "healthy subjects", "value": "1 (5.6) [1]"},
      {"measurement": "Constipation", "setting": "healthy subjects", "value": "1 (3.3) [1]"},
      {"measurement": "Cough", "setting": "healthy subjects", "value": "1 (3.3) [1]"},
      {"measurement": "Diarrhoea", "setting": "healthy subjects", "value": "1 (5.6) [1]"},
      {"measurement": "Gastrointestinal disorder", "setting": "healthy subjects", "value": "0 [0]"},
      {"measurement": "Immune system disorders", "setting": "healthy subjects", "value": "1 (5.6) [1]"},
      {"measurement": "Lymph node palpable", "setting": "healthy subjects", "value": "1 (5.6) [1]"},
      {"measurement": "Medical device site irritation", "setting": "healthy subjects", "value": "2 (6.7) [2]"},
      {"measurement": "Nasal congestion", "setting": "healthy subjects", "value": "1 (5.6) [1]"},
      {"measurement": "Nausea", "setting": "healthy subjects", "value": "1 (5.6) [1]"},
      {"measurement": "Nightmare", "setting": "healthy subjects", "value": "1 (5.6) [1]"},
      {"measurement": "Paraesthesia", "setting": "healthy subjects", "value": "0 [0]"},
      {"measurement": "Phlebitis", "setting": "healthy subjects", "value": "3 (10.0) [3]"},
      {"measurement": "Pruritus", "setting": "healthy subjects", "value": "1 (5.6) [1]"},
      {"measurement": "Psychiatric disorders", "setting": "healthy subjects", "value": "1 (5.6) [1]"},
      {"measurement": "Rhinorrhoea", "setting": "healthy subjects", "value": "0 [0]"},
      {"measurement": "Seasonal allergy", "setting": "healthy subjects", "value": "1 (5.6) [1]"},
      {"measurement": "Skin mass", "setting": "healthy subjects", "value": "1 (5.6) [1]"},
      {"measurement": "Syncope", "setting": "healthy subjects", "value": "1 (3.3) [1]"},
      {"measurement": "Urticaria", "setting": "healthy subjects", "value": "0 [0]"},
      {"measurement": "Vascular disorders", "setting": "healthy subjects", "value": "3 (10.0) [3]"},
      {"measurement": "IC50", "setting": "[1]", "value": "50 nM and 79 nM and 63 nM"},
      {"measurement": "reduction of erythrocyte count", "setting": "mice", "value": 19.8, "unit": "%"},
      {"measurement": "IC50", "setting": "[2]", "value": "250 nM and 320 nM and 400 nM"}
    ]}
  ]
}
